Experimental findings from patent EP0909764A1, “11 Beta-Benzaldoxim-9 Alpha, 10 Alpha-epoxy-estr-4-en-derivatives, a process for their production and pharmaceutical compositions containing them” (JENAPHARM GmbH, priority 1997, dated 1999) are described below.

One assay concerns the target T1, Progesteronrezeptor (Oryctolagus cuniculus, UniProt P06186).
T1 construct: Rezeptoren im Cytosol aus tierischen Target-Organen; from tissue; host or cells: uterus cytosol of estradiol-primed rabbit
T1 sequence (P06186 1-930): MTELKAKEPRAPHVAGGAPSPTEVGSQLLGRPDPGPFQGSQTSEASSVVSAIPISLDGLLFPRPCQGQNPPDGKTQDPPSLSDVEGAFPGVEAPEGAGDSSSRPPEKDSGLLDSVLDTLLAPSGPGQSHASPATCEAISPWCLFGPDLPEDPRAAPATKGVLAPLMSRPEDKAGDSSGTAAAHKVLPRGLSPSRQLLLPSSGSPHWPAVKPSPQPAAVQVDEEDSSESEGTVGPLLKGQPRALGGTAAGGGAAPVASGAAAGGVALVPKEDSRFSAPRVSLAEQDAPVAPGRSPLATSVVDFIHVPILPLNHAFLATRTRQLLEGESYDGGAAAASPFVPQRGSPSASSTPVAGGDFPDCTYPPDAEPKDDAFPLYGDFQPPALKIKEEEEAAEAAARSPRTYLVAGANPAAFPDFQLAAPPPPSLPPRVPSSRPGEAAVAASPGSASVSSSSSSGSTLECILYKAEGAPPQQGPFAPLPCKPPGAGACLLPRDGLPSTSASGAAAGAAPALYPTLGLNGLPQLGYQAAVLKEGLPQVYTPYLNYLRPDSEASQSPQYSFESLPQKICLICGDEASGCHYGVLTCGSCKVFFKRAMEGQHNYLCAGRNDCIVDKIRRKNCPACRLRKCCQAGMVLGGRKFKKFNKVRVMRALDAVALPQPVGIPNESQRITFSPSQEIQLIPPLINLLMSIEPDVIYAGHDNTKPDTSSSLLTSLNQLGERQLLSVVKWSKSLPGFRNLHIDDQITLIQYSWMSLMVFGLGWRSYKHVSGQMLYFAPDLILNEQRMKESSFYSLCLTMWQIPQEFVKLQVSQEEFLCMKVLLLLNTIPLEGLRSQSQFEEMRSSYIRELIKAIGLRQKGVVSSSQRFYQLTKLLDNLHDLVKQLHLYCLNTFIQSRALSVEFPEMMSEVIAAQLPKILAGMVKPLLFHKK
Nature of the assay: Receptor binding affinity, competitive binding with 3H-ORG 2058 in uterus cytosol. The arrangement: species or system Kaninchen. The note with it: uterus cytosol of estradiol-primed rabbit; tracer 3H-ORG 2058 5nM; 18 h at 0-4°C; quotient of IC50 values x 100 %. The protocol:
(§1) Die Rezeptor-Bindungsaffinität wurde bestimmt durch competitive Bindung eines spezifisch bindenden ^3H-markierten Hormons (Tracer) und der zu testenden Verbindung an Rezeptoren im Cytosol aus tierischen Target-Organen. Dabei wurden Rezeptorsättigung und Reaktionsgleichgewicht angestrebt. Folgende Inkubationsbe-dingungen wurden gewählt: • Progesteron-Rezeptor: Uterus-Cytosol des Estradiol-geprimten Kannchens, aufbe-wahrt bei -30° C. Puffer für Homogenisation und Inkubation: TED-Puffer 20 mM Tris/HCl, pH= 7,4; 1mM Ethylendiamintetraacetat, 2 mM Dithiothreitol) mit 250mM Saccharose. Tracer: ^3H-ORG 2058, 5nM; Referenzsubstanz: Progesteron. • Glucocorticoid-Rezeptor: Thymus-Cytosol der adrenalectomierten Ratte. Thymi aufbewahrt bei -30 °C. Puffer: TED. Tracer: ^3H-Dexamethason, 20nM. Referenzsub-stanz: Dexamethason. • Estrogen-Rezeptor: Uterus-Cytosol des unreifen Kaninchens, aufbewahrt bei -30 °C. Puffer:TED mit 250 mM Saccharose. Tracer: ^3H-Estradiol, 3nM. Referenzsubstanz: 17β-Estradiol.
(§2) Nach einer Inkubation von Rezeptorfraktion, Tracer und Competitor für 18 h bei 0-4°C erfolgte die Trennung von gebundenem und freiem Steroid durch Einmischen von Aktivkohle/Dextran (1 % / 0,1 %), Abzentrifugieren und Messung der rezeptorgebundenen ^3H-Aktivität im Überstand.
Aus der Messung in Konzentrationsreihen wurden die IC50 für die Referenzsubstanz und für die zu testende Verbindung ermittelt und als Quotient beider Werte (x 100 %) die relative molare Bindungsaffinität bestimmt. Nach einer Inkubationsdauer von 18 Stunden bei 0-4 °C erfolgte die Trennung von gebundenen und freiem Steroid durch Einmischen von Aktivkohle/Dextran / 1%/0,1 %), abzentrifugieren und Messung der gebundenen ^3H-Aktivität im Überstand. Aus der Messung in Konzentrationsreihen wurden die IC50 für die zu testende Substanz und für die Referenzverbindung ermittelt und als Quotient beider Werte (x 100 %) die relative molare Bindungsaffinität bestimmt.

The next assay has as its target T2, Glucocorticoidrezeptor (Rattus norvegicus, UniProt P06536).
T2 construct: Rezeptoren im Cytosol aus tierischen Target-Organen; from tissue; host or cells: thymus cytosol of adrenalectomised rat
T2 sequence (P06536 1-795): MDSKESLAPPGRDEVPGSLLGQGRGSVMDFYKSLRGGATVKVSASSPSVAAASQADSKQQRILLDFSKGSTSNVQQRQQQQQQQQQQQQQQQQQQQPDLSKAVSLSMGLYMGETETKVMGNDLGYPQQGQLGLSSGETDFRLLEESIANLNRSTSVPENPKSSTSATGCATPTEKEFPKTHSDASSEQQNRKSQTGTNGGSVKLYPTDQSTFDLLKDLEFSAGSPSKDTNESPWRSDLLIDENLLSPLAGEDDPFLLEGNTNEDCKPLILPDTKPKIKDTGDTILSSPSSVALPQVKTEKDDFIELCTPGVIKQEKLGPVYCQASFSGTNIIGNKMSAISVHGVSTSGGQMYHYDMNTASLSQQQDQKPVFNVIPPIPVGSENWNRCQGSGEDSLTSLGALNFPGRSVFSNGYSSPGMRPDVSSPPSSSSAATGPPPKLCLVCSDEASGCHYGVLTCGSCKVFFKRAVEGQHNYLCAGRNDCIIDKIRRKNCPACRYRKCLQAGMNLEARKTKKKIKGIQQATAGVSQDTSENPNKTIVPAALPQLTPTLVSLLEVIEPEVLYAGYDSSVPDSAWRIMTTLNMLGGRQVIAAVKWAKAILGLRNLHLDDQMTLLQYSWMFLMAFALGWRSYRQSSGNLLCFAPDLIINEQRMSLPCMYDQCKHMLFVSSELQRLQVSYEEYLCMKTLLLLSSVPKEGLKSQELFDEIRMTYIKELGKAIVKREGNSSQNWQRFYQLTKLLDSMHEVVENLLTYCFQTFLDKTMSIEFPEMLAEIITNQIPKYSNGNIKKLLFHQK
Description: Receptor binding affinity, competitive binding with 3H-Dexamethason in thymus cytosol. The arrangement: species or system Ratte. The note with it: thymus cytosol of adrenalectomised rat; tracer 3H-Dexamethason 20nM; 18 h at 0-4°C; quotient of IC50 values x 100 %. The protocol: as §1, with “Tracer: ^3H-ORG 2058, 5nM; Referenzsubstanz: Progesteron. • Glucocorticoid-Rezeptor: Thymus-Cytosol der adrenalectomierten Ratte.” left out
as §2
Nach einer Inkubationsdauer von 18 Stunden bei 0-4 °C erfolgte die Trennung von gebundenen und freiem Steroid durch Einmischen von Aktivkohle/Dextran / 1%/0,1 %), abzentrifugieren und Messung der gebundenen ^3H-Aktivität im Überstand.

For assay [1], the system named is frühe Gravidität bei der Ratte. Nature of the assay: Inhibition of early pregnancy in the rat (early abortive effect, subcutaneous). The assay is classed as in vivo. The note with it: day 5-7 of pregnancy, empty uteri; for komplette Graviditätshemmung N#/N: N# non-pregnant females / N mated females. The protocol: Rattenweibchen wurde im Stadium Prooestrus angepaart. Bei Nachweis von Spermien im Vaginalbereich am nächsten Tag wird dieser als Tag 1 (d =1) der Gravidität gesetzt. Die Behandlung der Ratten mit Testsubstanz oder Vehikel erfolgt mit 0,2 ml Benzoylbenzoat /Rizinusöl (1+4 v/v) subcutan vom Tag 5 bis Tag 7 (d5 -d7), die Autopsie erfolgt am Tag d 9. Die Rate von vollständig gehemmten Graviditäten in den einzelnen Gruppen ergibt sich aus Tabelle 2. So wurde für die Beispiele 1 (J 1102), 3 (J 1116), 8 (J 1204) und 9 (J 1120) eine um den Faktor 10 überlegene Nidationshemmung gegenüber RU 486 (Mifepriston) ermittelt.

For `CCOC(=O)O/N=C/c1ccc([C@H]2C[C@@]3(C)[C@@H](CC[C@]3(COC)OC)[C@@H]3CCC4=CC(=O)CC[C@]45O[C@]235)cc1` [9 ( J 1120)], the “relative molare Bindungs-affinität RBA (%) zum Progesteronrezeptor Progesteron = 100 %” value on Progesteronrezeptor was 63%. At Glucocorticoidrezeptor, the “relative molare Bindungs-affinität RBA (%) zum Glucocorticoidrezeptor Dexamethason = 100 %” value is reported as 15%.

Consider `COC[C@]1(O)CC[C@H]2[C@@H]3CCC4=CC(=O)CC[C@]45O[C@]35[C@@H](c3ccc(/C=N\O)cc3)C[C@@]21C` [4 ( J 1182)], for which the “relative molare Bindungs-affinität RBA (%) zum Progesteronrezeptor Progesteron = 100 %” value at Progesteronrezeptor turned out to be 29%.

As to `COC[C@]1(OC)CC[C@H]2[C@@H]3CCC4=CC(=O)CC[C@]45O[C@]35[C@@H](c3ccc(/C=N\O)cc3)C[C@@]21C` [2 ( J 1160)], the “relative molare Bindungs-affinität RBA (%) zum Progesteronrezeptor Progesteron = 100 %” value on Progesteronrezeptor was 49%. Further, the “relative molare Bindungs-affinität RBA (%) zum Glucocorticoidrezeptor Dexamethason = 100 %” value on Glucocorticoidrezeptor was 18%.

Regarding `COC[C@]1(OC)CC[C@H]2[C@@H]3CCC4=CC(=O)CCC4=C3[C@@H](c3ccc(/C=N/O)cc3)C[C@@]21C` [J 867], the “relative molare Bindungs-affinität RBA (%) zum Progesteronrezeptor Progesteron = 100 %” value on Progesteronrezeptor was 302%. At Glucocorticoidrezeptor, the “relative molare Bindungs-affinität RBA (%) zum Glucocorticoidrezeptor Dexamethason = 100 %” value came out at 77%. In addition, the “komplette Graviditätshemmung N#/N” value in assay [1] (0,3 mg/Tier/Tag s.c.) is 0/5; in assay [1] (1 mg/Tier/Tag s.c.), 5/5; in assay [1] (3 mg/Tier/Tag s.c.), 5/5. The “komplette Graviditätshemmung %” value in assay [1] (0,3 mg/Tier/Tag s.c.) was found to be 0%; in assay [1] (1 mg/Tier/Tag s.c.), 100%; in assay [1] (3 mg/Tier/Tag s.c.) it was 100%.

For the compound `COC[C@]1(O)CC[C@H]2[C@@H]3CCC4=CC(=O)CC[C@]45O[C@]35[C@@H](c3ccc(/C=N/OC(C)=O)cc3)C[C@@]21C` [6 ( J 1180)], the “relative molare Bindungs-affinität RBA (%) zum Progesteronrezeptor Progesteron = 100 %” value on Progesteronrezeptor came out at 31%. The “relative molare Bindungs-affinität RBA (%) zum Glucocorticoidrezeptor Dexamethason = 100 %” value on Glucocorticoidrezeptor is recorded as 8%.

With `COC[C@]1(OC)CC[C@H]2[C@@H]3CCC4=CC(=O)CC[C@]45O[C@]35[C@@H](c3ccc(/C=N/O)cc3)C[C@@]21C` [1 ( J 1102)], the “relative molare Bindungs-affinität RBA (%) zum Progesteronrezeptor Progesteron = 100 %” value at Progesteronrezeptor amounted to 88%. For the same compound, the “relative molare Bindungs-affinität RBA (%) zum Glucocorticoidrezeptor Dexamethason = 100 %” value on Glucocorticoidrezeptor amounted to 12%.

With `COC[C@]1(O)CC[C@H]2[C@@H]3CCC4=CC(=O)CC[C@]45O[C@]35[C@@H](c3ccc(/C=N/O)cc3)C[C@@]21C` [3 ( J 1116)], the “relative molare Bindungs-affinität RBA (%) zum Progesteronrezeptor Progesteron = 100 %” value at Progesteronrezeptor is 47%. For the same compound, at Glucocorticoidrezeptor, the “relative molare Bindungs-affinität RBA (%) zum Glucocorticoidrezeptor Dexamethason = 100 %” value came out at 12%.

Turning to `CN(C)c1ccc([C@H]2C[C@]3(C)[C@@H](CC[C@]3(O)CCCO)[C@@H]3CCC4=CC(=O)CCC4=C32)cc1` [ZK 98299, Onapriston], the “relative molare Bindungs-affinität RBA (%) zum Progesteronrezeptor Progesteron = 100 %” value at Progesteronrezeptor came out at 22%. Also, the “relative molare Bindungs-affinität RBA (%) zum Glucocorticoidrezeptor Dexamethason = 100 %” value at Glucocorticoidrezeptor worked out at 39%.

Take `CCNC(=O)O/N=C/c1ccc([C@H]2C[C@@]3(C)[C@@H](CC[C@]3(COC)OC)[C@@H]3CCC4=CC(=O)CC[C@]45O[C@]235)cc1` [17 ( J 1131)]: the “relative molare Bindungs-affinität RBA (%) zum Progesteronrezeptor Progesteron = 100 %” value at Progesteronrezeptor amounted to 68%. Further, the “relative molare Bindungs-affinität RBA (%) zum Glucocorticoidrezeptor Dexamethason = 100 %” value on Glucocorticoidrezeptor worked out at 30%.

In the case of `CCNC(=O)O/N=C/c1ccc([C@H]2C[C@@]3(C)[C@@H](CC[C@@]3(O)COC)[C@@H]3CCC4=CC(=O)CC[C@]45O[C@]235)cc1` [16 ( J 1186)], the “relative molare Bindungs-affinität RBA (%) zum Progesteronrezeptor Progesteron = 100 %” value at Progesteronrezeptor was 64%. Also, the “relative molare Bindungs-affinität RBA (%) zum Glucocorticoidrezeptor Dexamethason = 100 %” value at Glucocorticoidrezeptor came to 13%.

With `COC[C@]1(OC)CC[C@H]2[C@@H]3CCC4=CC(=O)CC[C@]45O[C@]35[C@@H](c3ccc(/C=N/OC(C)=O)cc3)C[C@@]21C` [5 ( J 1130)], on Progesteronrezeptor, the “relative molare Bindungs-affinität RBA (%) zum Progesteronrezeptor Progesteron = 100 %” value was 59%. In addition, the “relative molare Bindungs-affinität RBA (%) zum Glucocorticoidrezeptor Dexamethason = 100 %” value at Glucocorticoidrezeptor came to 15%.

With `CC#C[C@]1(O)CC[C@H]2[C@@H]3CCC4=CC(=O)CCC4=C3[C@@H](c3ccc(N(C)C)cc3)C[C@@]21C` [RU 486, Mifepriston], the “relative molare Bindungs-affinität RBA (%) zum Glucocorticoidrezeptor Dexamethason = 100 %” value at Glucocorticoidrezeptor was 685%. Further, the figures for the “komplette Graviditätshemmung N#/N” value in assay [1] (0,3 mg/Tier/Tag s.c.), in assay [1] (1 mg/Tier/Tag s.c.) and in assay [1] (3 mg/Tier/Tag s.c.) were 0/5, 1/5 and 5/5, respectively. In addition, the “komplette Graviditätshemmung %” value in assay [1] (0,3 mg/Tier/Tag s.c.) is listed as 0%; in assay [1] (1 mg/Tier/Tag s.c.) it was 20%; in assay [1] (3 mg/Tier/Tag s.c.), 100%.
